“Also recorded” adds a separate entry of the source.
Experiments:
[1] = test system: SK-MEL-5 Cancer cell line; assay: Cancer cell viability assay, SK-MEL-5; format: cell-based; settings: triplicates
Procedure: (§1) Cells were maintained in a 37° C. incubator with 5% CO2 throughout the experiment. Compound stocks were dissolved in 10% DMSO, but final concentrations were made fresh in complete media as needed. 10% DMSO solvent was used as control in complete media. Cells were seeded onto 12-well plates and allowed 12-24 hours until treatment began to allow cells to adhere to wells. This was followed by minimum 5-day treatment of compounds, changing the media with treatment every 48 hours. Cell lines A549, PC3, and SK-MEL-5 were seeded at 8000 cells/well which would provide 80-100% confluency after 6-day growth. SH-SY5Y was seeded at 8000 cells/well then 16,000 cells/well due to slower growth and given at least 10 days for sufficient growth. After allotted growth times, cell counts were performed via Countess™ automated cell counter. All assays were completed with a minimum of triplicate replicates for all conditions and analyzed through GraphPad Prism One-way ANOVA for significance.

[2] = test system: Arabidopsis thaliana seedlings; assay: Odor Exposure assay, Arabidopsis thaliana seedlings (root and leaf development); format: in vivo
Procedure: The Odor Exposure assay consists of controlled exposure of volatile odor compounds to model plant Arabidopsis within enclosed aquariums and similar growth conditions (23° C. with a 12-hour light/dark cycle). For Arabidopsis, seedlings were aligned on agar plates for growth after a 4-day cold treatment process. The agar plates with seedlings were then placed in enclosed aquariums with moist paper towels soaked in 10 ml of DI water for humidity. The plates were placed along the wall, approximately 12 cm from odor dispensers which resided in the center of the glass tank.
The test compound odor dispensers, consisting of (60×15 mm) polystyrene Petri dishes containing 2 ml of 1% v/v in PO, are replaced at the 3.5, 5, and 6-day time mark during the 7-day experiment. Root growth is marked during each time mark and the plates were imaged. The plants are to be collected after the 7-day exposure, photographed, and the leaves/roots carefully dissected separated, flash frozen in liquid nitrogen, and preserved for future sequencing. Root growth is measured using ImageJ.
In order to study the physiological effects of long-term exposure to microbial volatiles the model system Arabidopsis was exposed for […] to diacetyl, a volatile chemical emitted by fermentation by yeast or microbial degradation in the soil associated with roots (R. J. Morcillo et al., EMBO J 39, e102602 (2020); M. A. Farag, et al., Phytochemistry 67, 2262-2268 (2006); and C. M. Ryu et al., P Natl Acad Sci USA 100, 4927-4932 (2003). The Odor Exposure assay consisted of controlled exposure of volatile HDAC inhibiting compounds to model plant Arabidopsis within enclosed aquariums and similar growth conditions. The test compound odor cartridges, consisting of 60×15 mm polystyrene Petri dishes containing 2 ml of indicated concentration in Paraffin Oil, were replaced at the 3.5, 5, and 6-day time mark during the 7-day experiment (FIG. 1A, left). In separate experiments the weight loss from the odor cartridges over time was measured and used it to calculate the concentration of diacetyl in the glass chambers in parts per million (FIG. 1A, right).
In order to directly evaluate whether exposure to vapors of the four HDAC-inhibitory VOCs affect root development, we performed a set of experiments using A. thaliana seedlings as before. Solutions for each of the four chemicals on a small petri dish were placed away from the seedlings growing in agar plate and enclosed in glass tank. The Root tips were marked at specified days post treatment start and photographs analyzed. The plants were collected after the 7-day exposure, photographed, and the roots were separated. Detailed measurements were made from the photos using ImageJ and the root length and numbers of lateral roots quantified at day 3.5 and day 7 after start if the treatment (FIG. 1B).
The Odor Exposure assay consists of controlled exposure of volatile odor compounds to model plant Arabidopsis within enclosed aquariums and similar growth conditions (23° C. with a 12-hour light/dark cycle). The test compound odor cartridges, consisting of (60×15 mm) polystyrene Petri dishes containing 2 ml of 1% v/v in paraffin oil (PO), were replaced at the 3.5, 5, and 6-day time mark during the 7-day experiment. Root growth was marked during each time point and the plates were imaged. Numbers of true leaves were also counted. The plants are to be collected after the 7-day exposure, photographed, and the leaves/roots carefully dissected separated, flash frozen in liquid nitrogen, and preserved for future sequencing. Root growth is measured using ImageJ.

[3] = test system: A. thaliana plants (Col-0); assay: Weed killing assay; format: in vivo, Arabidopsis thaliana; settings: 1% (volume/volume) in PO, 7 days vapor exposure, 4 weeks recovery
Source text: Since large scale changes in gene expression occur it is presumed that higher doses of some of the compounds could negatively affect some plants, even causing death. Since Arabidopsis thaliana is also considered a type of weed and goes by the common name Thale cress, it was used as a model to test the weed killing potential at higher doses. In order to evaluate the activity of some of these volatiles in plant killing twenty-seven day old A. thaliana plants (Col-0), that had been transplanted at day 7 to soil, were placed in 10-gallon glass aquarium as chamber along with a petridish containing 2 ml of chemical dissolved in PO at 1% (volume/volume) or PO alone were placed at the other side of the container. Plants were exposed to odor vapors for 7 days and observed for death.
Twenty-seven day old A. thaliana plants (Col-0), that had been transplanted at day 7 to soil, were placed in 10-gallon glass aquarium as chamber along with a petridish containing 2 ml of chemical dissolved in PO at 1% (volume/volume) or PO alone were placed at the other side of the container. Plants were exposed to odor vapors for 7 days and observed for death.

[4] = test system: A549 Cancer cell line; assay: Cancer cell viability assay, A549; format: cell-based, human
Procedure: as §1

[5] = 7-day exposure, headspace of 1% v/v in Paraffin oil

In the case of CC(=O)C(C)=O [2,3-butanedione], the “changes in proliferation, SK-MEL-5” value ([1]; 33 uM) is reported as “No significant changes in proliferations”, the “changes in proliferation, SK-MEL-5” value ([1]; 100 uM) is reported as “No significant changes in proliferations” and the root growth ([2]; 3.5-day exposure, headspace of 1% v/v in Paraffin oil) is reported as “significant root growth inhibition”. The “lateral root growth (number of lateral roots)” value [2, 5] was “increase; also recorded: notable lateral root promotion; also recorded: significant phenotypic changes”, the “leaf development (number of large / true leaves)” value [2, 5] was “changes in the number of true leaf development/growth; also recorded: significant phenotypic changes” and the “lateral root growth (number of lateral roots)” value ([2]; 7-day exposure, headspace of 1% v/v in Paraffin oil, listed as 2,3-butandione) was “promoted lateral root growth”. The “leaf development (number of large / true leaves)” value ([2]; 7-day exposure, headspace of 1% v/v in Paraffin oil, listed as diacetyl) was “significant decreases”, the “root growth (primary root length)” value ([2]; 7-day exposure, headspace of solution in Paraffin oil) was “lack of growth” and the “lateral roots, number relative to control” value ([2]; highest dose, 7-day exposure) was ~3 times. For the same molecule, the “plants killed (dead)” value [3] was 6 of 8, the “changes in proliferation, A549” value ([4]; 100 mM treatment, triplicates) was “No significant changes in proliferations” and the “inhibition of cell growth, A549” value ([4]; 33 micro-molar) was “may be some A549 inhibition”.
